In brackets after ≈: the same amount, converted by molar mass. Like-named read-outs stand apart in the source and are kept apart here.
Legend:
[1] = test system: panel of 50 receptors, channels and enzymes binding sites; settings: 1 μM
[2] = Solubility in water, FaSSIF and FeSSIF; assay type: physicochemical
[3] = test system: OT-induced myometrial contractility; test: Oxytocin-induced contractions of human myometrial biopsies (myograph); settings: 6, 60, 600, 6000 nM
Method: Experiments were performed using a DMT Myograph 800 MS (ADINSTRUMENTS™) in oxygenated Kreb's solution with ADI Powerlab software. Once regular contractions had been established for at least 20 minutes, baseline measurements of spontaneous contraction frequency were recorded. The measurement of spontaneous contraction frequency is represented on the x-axis as “Spon.” A DMSO control or compound II was then added to each myometrial sample at the indicated concentrations and the effects of control or compound II on contractile frequency were measured over the ensuing 10-minute period. This time point is represented on the x-axis as “Compound II.” The effects of compound II on contractile frequency in the presence of OT were subsequently measured by challenging the myometrial tissue samples with increasing concentrations of OT (1 nM, 10 nM, and 100 nM) at sequential 10-minute intervals. […] Once regular contractions had been established for at least 20 minutes, baseline measurements of spontaneous work done per contraction were recorded. The measurement of spontaneous work done per contraction is represented on the x-axis as “Spon.” A DMSO control or compound II was then added to each myometrial sample at the indicated concentrations and the effects of control or compound II on work done per contraction were measured over the ensuing 10-minute period. […]

[4] = test system: other prostaglandin receptor subtypes; settings: FP over other subtypes
Method: (§1) Selectivity of compound II was tested against all eight prostaglandin receptor subtypes.

[5] = biological target: prostaglandin E receptor 2 (EP2) (Homo sapiens, UniProt P43116); settings: FP over EP2
Method: as §1

human FP = human FP (Homo sapiens, UniProt P43088); test: IP3 synthesis in FP-transfected HEK293-EBNA cells; settings: tested up to 10 μM
human FP, sequence (P43088 whole entry): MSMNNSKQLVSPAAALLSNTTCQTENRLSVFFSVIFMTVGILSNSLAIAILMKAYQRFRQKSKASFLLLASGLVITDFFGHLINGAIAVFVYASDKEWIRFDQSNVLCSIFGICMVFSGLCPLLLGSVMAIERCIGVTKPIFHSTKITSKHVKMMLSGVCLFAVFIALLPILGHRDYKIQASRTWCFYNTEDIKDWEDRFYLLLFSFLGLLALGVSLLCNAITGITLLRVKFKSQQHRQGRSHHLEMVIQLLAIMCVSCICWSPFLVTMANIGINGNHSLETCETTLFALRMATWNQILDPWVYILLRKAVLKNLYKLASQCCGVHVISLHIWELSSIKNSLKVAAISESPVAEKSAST

prostaglandin E receptor 2 (EP2), sequence (P43116 whole entry): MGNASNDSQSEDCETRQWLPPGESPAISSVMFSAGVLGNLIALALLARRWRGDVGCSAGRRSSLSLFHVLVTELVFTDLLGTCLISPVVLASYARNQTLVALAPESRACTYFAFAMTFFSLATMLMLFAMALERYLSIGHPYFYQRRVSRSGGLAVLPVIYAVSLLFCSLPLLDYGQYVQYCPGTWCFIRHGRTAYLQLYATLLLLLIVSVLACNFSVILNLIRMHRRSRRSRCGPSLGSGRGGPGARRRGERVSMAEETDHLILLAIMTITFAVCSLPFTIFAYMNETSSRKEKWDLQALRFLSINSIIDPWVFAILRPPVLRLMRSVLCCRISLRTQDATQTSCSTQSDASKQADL

For O=C(N[C@@H](CCO)c1ccc(F)cc1)[C@@H]1SCCN1S(=O)(=O)c1ccc(-c2ccccc2)cc1 [Compound II, 3-([1,1′-biphenyl]-4-ylsulfonyl)-N-[1-(4-fluorophenyl)-3-hydroxypropyl]-1,3-thiazolidine-2-carboxamide], the “Selectivity in panel of 50 receptors, channels and enzymes” value [1] was “high selectivity for FP”, the solubility ([2]; FaSSIF, pH 6.5 (fasted state), read-out: Solubility in FaSSIF pH 6.5) was 0.4 µg/mL (≈ 0.799 µM) and the solubility ([2]; FeSSIF, pH 5.0 (fed state), read-out: Solubility in FeSSIF pH 5.0) was 10 µg/mL (≈ 20 µM). The “Effect on OT-induced myometrial contractility” value [3] was “suppressing both PGF2α-induced and OT-induced myometrial contractility in a dose-dependent fashion”, the “Selectivity against other prostaglandin receptors” value [4] was “higher than 100 fold” and the “Selectivity versus prostaglandin E receptor 2 (EP2)” value [5] was “approximately 10 fold”. The “Agonist activity (IP3 synthesis when added alone)” value (human FP) was “did not induce any synthesis of IP3”.

Reference: patent publication US11524003B2, “Alpha-amino esters of hydroxypropylthiazolidine carboxamide derivative and salt form, crystal polymorph thereof” (ObsEva S.A., priority 2016, dated 2022)
